The record followed here is publication PMC5651862 (Scientific Reports, 2017).

Series [1] concerns the target T1, purified human PPARγ LBD (Homo sapiens, UniProt P37231).
T1 construct: purchased Invitrogen
T1 sequence (P37231 238-503 limits assumed): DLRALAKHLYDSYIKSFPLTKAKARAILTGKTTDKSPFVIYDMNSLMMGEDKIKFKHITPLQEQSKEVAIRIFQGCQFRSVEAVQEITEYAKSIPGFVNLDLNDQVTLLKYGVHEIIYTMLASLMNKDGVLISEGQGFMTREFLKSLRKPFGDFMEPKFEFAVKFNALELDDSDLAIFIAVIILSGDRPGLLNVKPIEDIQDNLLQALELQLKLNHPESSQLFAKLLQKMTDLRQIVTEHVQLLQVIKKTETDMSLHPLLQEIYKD
Nature of the series: LanthaScreen TR-FRET PPARγ competitive binding assay. As to the method: In this assay a fluorescently labeled ligand (Fluormone, Invitrogen) is displaced upon binding of the tested compound leading to a decrease in the FRET signal. Binding to the receptor was assessed in a concentration-dependent manner. […] Compounds that bind to the PPARγ LBD displace the fluorescently labeled ligand […]. […] Data points are represented as mean ± SEM from four independent experiments performed in duplicate. […] HEK-293 cells were transfected as described in the Methods section and stimulated for 18 h, as indicated. Luciferase activity was normalized to EGFP-derived fluorescence. Results are expressed as fold induction compared with the solvent control (DMSO, 0.1%). EC50 values were calculated using a sigmoidal curve fit with variable slope. […] HEK293 cells were transfected as described in the Methods section, treated as indicated for 18 h and luciferase activity measured as under (A). All data are shown as means ± SD of at least three independent experiments performed in quadruplicate. […] The compounds were dissolved in DMSO (solvent vehicle) and incubated together with the human PPARγ LBD tagged with GST, terbium-labeled anti-GST antibody and fluorescently labeled PPAR ligand (Fluormone™ Pan-PPAR Green). Binding of a ligand results in a fluorescence resonance energy transfer (FRET) after excitation of terbium at 340 nm and in an emission at 520 nm. Test compounds binding to the human PPARγ LBD are competing with the fluorescently labeled ligand and displacing it, resulting in a decrease of the FRET signal. […] All quantifications were performed with a GeniosPro plate reader (Tecan).
To calculate the EC50 values data were curve fitted and non-linear transformed using a sigmoidal dose response with variable slope.

For series [2], the target named is T2, PPARγ/RXRα heterodimer (Homo sapiens, UniProt P19793+P37231).
T2 construct: transfected with 6 μg of full-length human PPARγ and full-length human RXRα expression plasmid, respectively or both; expressed in transfected cells; host or cells: HEK293
T2 sequence (P37231 1-477 isoform P37231-2): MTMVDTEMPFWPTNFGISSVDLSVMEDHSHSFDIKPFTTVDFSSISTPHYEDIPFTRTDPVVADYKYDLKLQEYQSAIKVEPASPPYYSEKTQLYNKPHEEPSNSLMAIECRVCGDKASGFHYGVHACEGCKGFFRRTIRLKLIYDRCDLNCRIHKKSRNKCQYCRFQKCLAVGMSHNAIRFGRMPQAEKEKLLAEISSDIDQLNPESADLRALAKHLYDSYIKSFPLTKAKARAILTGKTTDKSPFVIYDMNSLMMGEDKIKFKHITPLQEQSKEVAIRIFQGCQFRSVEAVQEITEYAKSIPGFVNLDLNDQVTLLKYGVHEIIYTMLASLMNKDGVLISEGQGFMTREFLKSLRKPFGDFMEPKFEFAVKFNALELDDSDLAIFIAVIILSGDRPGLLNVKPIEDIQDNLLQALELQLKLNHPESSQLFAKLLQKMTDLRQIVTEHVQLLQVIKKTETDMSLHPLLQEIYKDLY
T2 sequence (P19793 1-462): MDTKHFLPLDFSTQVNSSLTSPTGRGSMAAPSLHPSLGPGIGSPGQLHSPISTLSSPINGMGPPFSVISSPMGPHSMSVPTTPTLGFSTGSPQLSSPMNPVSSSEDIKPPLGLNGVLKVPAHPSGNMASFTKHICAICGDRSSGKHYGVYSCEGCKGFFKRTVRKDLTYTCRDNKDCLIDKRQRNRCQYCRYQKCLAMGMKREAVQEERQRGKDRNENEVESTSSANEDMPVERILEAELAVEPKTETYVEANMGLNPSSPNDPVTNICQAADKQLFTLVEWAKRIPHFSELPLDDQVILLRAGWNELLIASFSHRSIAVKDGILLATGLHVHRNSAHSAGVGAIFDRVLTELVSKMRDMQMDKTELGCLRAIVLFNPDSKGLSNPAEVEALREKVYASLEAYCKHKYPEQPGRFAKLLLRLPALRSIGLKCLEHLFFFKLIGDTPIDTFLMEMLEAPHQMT
Nature of the series: PPARγ/RXRα heterodimer-induced luciferase reporter transactivation in co-transfected HEK293 cells. In kind it is cell-based. Particulars: 18 h. The source says: Luciferase activity was normalized to EGFP-derived fluorescence.
In general terms: Reporter assays use an easily measured gene product as a stand-in for the process of interest.

Series [3] in a line: Resazurin conversion assay (cytotoxicity). In kind it is cell-based. Particulars: human, HEK293 cells, HEK293, vs DMSO 0.1%, read-out: cell viability. The procedure: Assessment of cytotoxicity […]
on cell viability assessed by the resazurin conversion assay in HEK293 cells. HEK293 cells were […]
conversion was measured after 4 hours. Results are expressed as % cell viability compared to the solvent control DMSO (0.1%). Data are expressed as means ± SD of three independent experiments performed in quadruplicate. (One-way ANOVA, Dunnett´s test, p<0.01**). […]
resofurin. Conversion of this non-fluorescent agent to resofurin depends on redox equivalents provided by cellular metabolism. Thus, the conversion (fluorescence signal) is direct proportional to the number of viable cells and thus to cell viability. HEK293 cells (ATCC, Manassas, VA) were seeded in 96-well plates at a density of 40,000 cells per well and incubated for 24 hours in DMEM supplemented with 2 mM glutamine, 100 U/ml benzylpenicillin, 100 μg/ml streptomycin, and 10% fetal bovine serum. Next day, cells were incubated with increasing concentrations of the indicated […]
After 24 hours of incubation with the test compounds cells were washed again in PBS and then incubated with 10 μg/mL resazurin […]
solution in PBS. After 4 hours plates were read on a Tecan GeniosPro plate reader using an excitation wavelength of 535 nm and an emission wavelength of 580 nm. […]
For orientation: Alamar Blue is a resazurin reagent that responds to reducing activity.

In series [4] the test system is 3T3-L1 preadipocytes. Nature of the series: Adipocyte differentiation in 3T3-L1 pre-adipocytes (Oil Red O). In kind it is cell-based. The conditions noted are these: 1–10 µM, 8 days, insulin 1 µg/mL. The procedure:
PPARγ plays a major role in adipocyte differentiation and in the regulation of adipose-related genes that are involved in developing the adipose phenotype. […]
solution in PBS. After 4 hours plates were read on a Tecan GeniosPro plate reader using an excitation wavelength of 535 nm and an emission wavelength of 580 nm.
Adipocyte differentiation in 3T3-L1 cells
Insulin control Rosiglitazone (1 µM) […]
dimer (1). 3T3-L1 cells were incubated in medium containing insulin (1 µg/mL) for 8 days with or […]
µM) was used as positive control. The medium was exchanged every second day. At day 8, cells were fixed in 10% formaldehyde, stained with Oil Red O and photographed (A). Oil Red O was then […]
solubilized and quantified at 550 nm using a plate reader (B). Lipid accumulation is expressed as fold increase compared to the insulin/solvent control (1 µg/mL insulin in 0.1 % DMSO) and is expressed as means ± SD of three independent experiments (One-way ANOVA, Bonfferoni post test, p<0.05 *). […]
Medium was exchanged every second day. After eight days, lipid accumulation (as a measure of adipogenic differentiation) was determined by Oil Red O staining as described previously.5 For this, cells were fixed in 10% formaldehyde for 1 h and stained with Oil Red O for 10 minutes. […]

Series [5] concerns the target T3, full-length human RXRα (Homo sapiens, UniProt P19793).
T3 sequence (P19793 1-462): T2 sequence (P19793 1-462)
Description: RXRα-dependent luciferase reporter gene transactivation in HEK293 cells. The conditions noted are these: HEK293, 18 h, up to 10 µM.

Series [6] deals with T4, full-length human PPARγ (Homo sapiens, UniProt P37231).
T4 sequence (P37231 1-477 isoform P37231-2): T2 sequence (P37231 1-477 isoform P37231-2)
Nature of the series: PPARγ-dependent luciferase reporter gene transactivation in HEK293 cells.

Each structure is given as a SMILES string.

By Ki is commonly meant the equilibrium dissociation constant of an inhibitor or competing ligand from its target. In general, viability refers to a read-out of living cells in per cent, often relative to untreated cells. As usually defined, the EC50 is the concentration giving half of the maximal effect. Read a high EC50 as a less potent agent. Compound `C=CCc1ccc(O)c(-c2cc(CC=CCCCc3cc(O)c(-c4cc(CC=C)ccc4O)cc3CC=C)ccc2O)c1` [magnolol dimer (1)] registered an inhibition constant (Ki) in series [1] (competitive displacement of Fluormone Pan-PPAR Green, Cheng-Prusoff, four independent experiments in duplicate) of 5.03 nM. In addition, in series [1] (ratio of Ki values), the “fold higher affinity to human PPARγ LBD compared to magnolol” value is recorded as “more than 12 fold” and the “fold higher affinity to human PPARγ LBD compared to pioglitazone” value is reported as “more than 16 fold”. The “fold activation of PPARγ/RXRα heterodimer, co-treatment with bexarotene” value in series [2] (10 µM compound plus full RXR agonist bexarotene, HEK293 co-transfected) stood at 13.20 ± 3.98 fold. Besides, the “fold activation of PPARγ/RXRα heterodimer” value in series [2] (10 µM, HEK293 co-transfected with PPARγ and RXRα, vs DMSO 0.2%) amounted to 3.82 ± 1.22 fold. Moreover, in series [3], the viability at 24 h, 10 µM is no less than 90% and the viability at 24 h, 30 µM turned out to be 22.7 ± 5.35%. Also, in series [4], the “adipocyte differentiation (result in words)” value was “induces adipocyte differentiation”. For the same compound, the “RXRα-dependent luciferase gene expression (result in words)” value in series [5] was “does not activate RXRα-dependent luciferase gene expression”. Also, the “RXRα-dependent luciferase gene expression (result in words)” value in series [5] (listed as the dimer) is given as “did not transactivate RXRα-dependent luciferase gene expression”. This compound registered an EC50 in series [6] of 1520 nM. For the same compound, the “Emax PPARγ-dependent luciferase transactivation” value in series [6] (HEK293, 18 h, Emax values ± SD, results as fold induction vs DMSO) is 4.67 ± 0.26. Moreover, the “efficacy compared to pioglitazone” value in series [6] (HEK293, Emax relative to full agonist pioglitazone) is reported as “around 62%”. Moreover, the “fold lower potency compared to magnolol” value in series [6] (ratio of EC50 values) is on record as “about 1.5 fold”.
For `C=CCc1ccc(O)c(-c2cc(CC=C)ccc2O)c1` [magnolol, reference compound], in series [3], the viability at 24 h, 10 µM was no less than 90% and the viability at 24 h, 30 µM came to 9.1 ± 9.05%.
